Columns and labels:
[1] = molecular target: Muscarinic acetylcholine receptor M1 (Homo sapiens) (UniProt P11229); assay: Antagonist activity at M1 receptor (unknown origin) at 10 uM relative to control
[2] = molecular target: Metabotropic glutamate receptor 2 (Homo sapiens) (UniProt Q14416); assay: Antagonist activity at mGlu2 receptor (unknown origin) at 10 uM relative to control
Rattus norvegicus = assay: Analgesic activity in rat spinal nerve ligation model of neuropathic pain assessed as recovery from cold allodynia at 100 mg/kg, po administered on day 14 post ligation surgery measured after 1 hr relative to control; type: functional
[3] = molecular target: Alpha-1A adrenergic receptor (Homo sapiens) (UniProt P35348); assay: Agonist activity at ADRA1A (unknown origin) at 12.5 uM relative to control
Alpha-1A adrenergic receptor (Homo sapiens), sequence (P35348 whole entry): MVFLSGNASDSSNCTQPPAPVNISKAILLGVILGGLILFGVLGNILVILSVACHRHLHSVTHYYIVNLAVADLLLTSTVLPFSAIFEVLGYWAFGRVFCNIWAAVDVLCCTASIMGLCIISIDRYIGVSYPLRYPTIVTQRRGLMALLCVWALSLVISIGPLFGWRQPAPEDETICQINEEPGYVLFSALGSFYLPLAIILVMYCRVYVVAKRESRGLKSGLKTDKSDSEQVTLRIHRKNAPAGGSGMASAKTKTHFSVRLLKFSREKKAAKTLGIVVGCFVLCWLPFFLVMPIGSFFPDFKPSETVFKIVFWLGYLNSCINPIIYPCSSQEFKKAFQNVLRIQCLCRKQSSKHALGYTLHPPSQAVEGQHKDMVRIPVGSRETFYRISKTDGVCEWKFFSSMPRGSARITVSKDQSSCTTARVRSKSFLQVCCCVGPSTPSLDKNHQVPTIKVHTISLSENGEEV

[4] = molecular target: Metabotropic glutamate receptor 2 (Homo sapiens) (UniProt Q14416); assay: Agonist activity at mGlu2 receptor (unknown origin) at 12.5 uM relative to control
[5] = Terminal half life in Sprague-Dawley rat at 10 mg/kg, iv by LC-MS/MS analysis; type: ADME, organism-based; parameters: dose 10 mg/kg, route intravenous; conditions: in vivo, read-out: beta t1/2
CYP2D6 = CYP2D6 (Homo sapiens, UniProt P10635); assay: Inhibition of recombinant human CYP2D6 assessed as remaining activity at 10 uM preincubated for 5 mins followed by substrate and NADP addition measured after 20 mins by fluorescence assay relative to control; type: ADME; conditions: read-out: Activity
[6] = Terminal half life in Sprague-Dawley rat at 10 mg/kg, po by LC-MS/MS analysis; type: ADME, organism-based; parameters: dose 10 mg/kg, route oral; conditions: in vivo, read-out: beta t1/2
[7] = Metabolic stability in human liver microsomes assessed as compound remaining at 1 uM after 30 mins by LC-MS/MS analysis in presence of NADPH; type: ADME; conditions: read-out: Stability
[8] = AUC (0 to infinity) in Sprague-Dawley rat at 10 mg/kg, po by LC-MS/MS analysis; type: ADME, organism-based; parameters: time infinity, dose 10 mg/kg, route oral; conditions: plasma
CYP3A4 = CYP3A4 (Homo sapiens, UniProt P08684); assay: Inhibition of recombinant human CYP3A4 assessed as remaining activity at 10 uM preincubated for 5 mins followed by substrate and NADP addition measured after 20 mins by fluorescence assay relative to control; type: ADME; conditions: read-out: Activity
[9] = Drug excretion in Sprague-Dawley rat at 10 mg/kg, po by LC-MS/MS analysis; type: ADME, organism-based; parameters: dose 10 mg/kg, route oral; conditions: in vivo, read-out: Drug excretion
[10] = molecular target: Muscarinic acetylcholine receptor M1 (Homo sapiens) (UniProt P11229); assay: Agonist activity at M1 receptor (unknown origin) at 12.5 uM relative to control
[11] = molecular target: 5-hydroxytryptamine receptor 2A (Homo sapiens) (UniProt P28223); assay: Agonist activity at 5HT2A receptor (unknown origin) at 12.5 uM relative to control
5-hydroxytryptamine receptor 2A (Homo sapiens), sequence (P28223 whole entry): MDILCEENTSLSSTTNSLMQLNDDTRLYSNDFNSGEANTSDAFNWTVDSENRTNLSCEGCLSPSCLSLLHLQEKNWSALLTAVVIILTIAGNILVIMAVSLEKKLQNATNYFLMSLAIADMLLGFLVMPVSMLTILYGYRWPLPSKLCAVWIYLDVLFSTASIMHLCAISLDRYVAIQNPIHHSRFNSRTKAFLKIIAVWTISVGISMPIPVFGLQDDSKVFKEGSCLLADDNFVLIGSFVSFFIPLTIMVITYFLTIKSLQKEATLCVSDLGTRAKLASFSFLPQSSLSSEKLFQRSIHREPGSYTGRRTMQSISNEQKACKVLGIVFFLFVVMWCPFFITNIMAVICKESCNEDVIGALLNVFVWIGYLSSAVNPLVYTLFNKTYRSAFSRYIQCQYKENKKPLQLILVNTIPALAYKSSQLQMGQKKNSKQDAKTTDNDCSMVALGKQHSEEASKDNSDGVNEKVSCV

[12] = Plasma concentration in Sprague-Dawley rat at 10 mg/kg, iv measured at 2 hrs by LC-MS/MS analysis; type: ADME, organism-based; parameters: dose 10 mg/kg, route intravenous
[13] = molecular target: Metabotropic glutamate receptor 1 (Homo sapiens, UniProt Q13255); assay: Antagonist activity at human mGluR1 expressed in human Chem-3 cells assessed as inhibition of L-glutamate-induced calcium release by calcium-5 reagent-based fluorescence assay; type: functional, cell-based
Metabotropic glutamate receptor 1, sequence (Q13255 whole entry): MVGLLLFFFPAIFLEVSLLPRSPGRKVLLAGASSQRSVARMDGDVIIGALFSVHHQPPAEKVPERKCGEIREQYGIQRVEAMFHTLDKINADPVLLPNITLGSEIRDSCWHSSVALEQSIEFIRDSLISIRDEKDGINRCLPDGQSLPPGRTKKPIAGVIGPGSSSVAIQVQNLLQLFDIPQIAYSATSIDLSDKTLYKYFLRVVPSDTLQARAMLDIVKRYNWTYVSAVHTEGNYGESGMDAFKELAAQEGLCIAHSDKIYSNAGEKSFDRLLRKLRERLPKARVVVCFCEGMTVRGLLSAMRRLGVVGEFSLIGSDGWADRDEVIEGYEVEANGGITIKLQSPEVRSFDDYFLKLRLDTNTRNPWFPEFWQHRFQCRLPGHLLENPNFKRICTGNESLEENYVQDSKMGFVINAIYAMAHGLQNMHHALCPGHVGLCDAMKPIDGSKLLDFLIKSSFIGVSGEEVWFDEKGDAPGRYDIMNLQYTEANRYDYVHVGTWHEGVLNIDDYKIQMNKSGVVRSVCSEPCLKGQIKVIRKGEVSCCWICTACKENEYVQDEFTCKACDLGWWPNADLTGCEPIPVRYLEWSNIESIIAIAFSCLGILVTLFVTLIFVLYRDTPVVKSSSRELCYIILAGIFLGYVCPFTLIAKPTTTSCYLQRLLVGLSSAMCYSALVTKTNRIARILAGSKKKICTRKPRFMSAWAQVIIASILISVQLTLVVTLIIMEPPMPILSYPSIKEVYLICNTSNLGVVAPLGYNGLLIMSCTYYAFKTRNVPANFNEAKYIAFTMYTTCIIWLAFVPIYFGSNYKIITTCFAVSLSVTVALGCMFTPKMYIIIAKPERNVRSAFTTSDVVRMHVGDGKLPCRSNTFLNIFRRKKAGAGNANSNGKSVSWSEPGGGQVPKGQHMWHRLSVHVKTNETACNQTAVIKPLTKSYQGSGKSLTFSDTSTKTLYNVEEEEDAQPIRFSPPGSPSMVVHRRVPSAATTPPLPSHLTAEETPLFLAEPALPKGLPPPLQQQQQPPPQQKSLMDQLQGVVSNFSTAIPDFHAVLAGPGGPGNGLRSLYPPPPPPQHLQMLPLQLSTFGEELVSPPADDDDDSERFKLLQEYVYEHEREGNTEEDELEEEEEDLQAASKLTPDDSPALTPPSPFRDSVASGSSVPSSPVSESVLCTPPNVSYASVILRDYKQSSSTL

[14] = molecular target: C-C chemokine receptor type 5 (Homo sapiens) (UniProt P51681); assay: Agonist activity at CCR5 (unknown origin) at 12.5 uM relative to control
[15] = molecular target: C-X-C chemokine receptor type 5 (Homo sapiens) (UniProt P32302); assay: Antagonist activity at CXCR5 (unknown origin) at 10 uM relative to control
C-X-C chemokine receptor type 5 (Homo sapiens), sequence (P32302 whole entry): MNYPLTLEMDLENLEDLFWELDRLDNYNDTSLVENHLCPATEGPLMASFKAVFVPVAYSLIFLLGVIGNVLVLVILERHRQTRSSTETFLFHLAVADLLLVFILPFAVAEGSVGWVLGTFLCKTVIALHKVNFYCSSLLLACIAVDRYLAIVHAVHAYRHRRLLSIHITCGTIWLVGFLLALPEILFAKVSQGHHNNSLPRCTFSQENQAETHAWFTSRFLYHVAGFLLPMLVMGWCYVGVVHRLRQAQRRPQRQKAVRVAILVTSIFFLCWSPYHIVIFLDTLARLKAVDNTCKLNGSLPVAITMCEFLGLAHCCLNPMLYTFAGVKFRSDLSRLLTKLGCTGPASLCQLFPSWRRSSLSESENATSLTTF

[16] = molecular target: C-C chemokine receptor type 2 (Homo sapiens) (UniProt P41597); assay: Agonist activity at CCR2B (unknown origin) at 12.5 uM relative to control
C-C chemokine receptor type 2 (Homo sapiens), sequence (P41597 whole entry, looked up): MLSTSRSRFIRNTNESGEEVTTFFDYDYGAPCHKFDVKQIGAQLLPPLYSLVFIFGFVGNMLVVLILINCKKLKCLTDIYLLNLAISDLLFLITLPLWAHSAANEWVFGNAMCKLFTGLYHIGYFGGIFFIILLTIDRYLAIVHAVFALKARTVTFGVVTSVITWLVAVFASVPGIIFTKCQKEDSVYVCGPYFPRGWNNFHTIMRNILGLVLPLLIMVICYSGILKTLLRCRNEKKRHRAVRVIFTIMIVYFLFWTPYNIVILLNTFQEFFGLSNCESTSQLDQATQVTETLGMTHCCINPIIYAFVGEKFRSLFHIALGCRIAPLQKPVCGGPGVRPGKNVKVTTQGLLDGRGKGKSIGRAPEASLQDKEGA

[17] = molecular target: Cannabinoid receptor 1 (Homo sapiens) (UniProt P21554); assay: Antagonist activity at CB1 receptor (unknown origin) at 10 uM relative to control
Cannabinoid receptor 1 (Homo sapiens), sequence (P21554 whole entry): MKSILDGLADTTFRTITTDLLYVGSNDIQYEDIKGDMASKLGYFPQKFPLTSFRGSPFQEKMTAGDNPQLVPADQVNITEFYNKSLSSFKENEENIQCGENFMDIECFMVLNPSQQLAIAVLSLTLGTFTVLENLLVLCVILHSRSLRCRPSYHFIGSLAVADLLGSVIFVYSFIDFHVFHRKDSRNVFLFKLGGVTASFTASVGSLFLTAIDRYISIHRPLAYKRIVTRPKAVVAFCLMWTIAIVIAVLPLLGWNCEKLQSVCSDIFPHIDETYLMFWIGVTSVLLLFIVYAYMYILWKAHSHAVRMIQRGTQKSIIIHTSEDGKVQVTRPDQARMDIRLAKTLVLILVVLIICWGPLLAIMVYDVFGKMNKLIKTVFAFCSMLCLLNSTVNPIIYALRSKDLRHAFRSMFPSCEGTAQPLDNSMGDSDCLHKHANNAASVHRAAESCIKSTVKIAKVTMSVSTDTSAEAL

[18] = molecular target: C-X-C chemokine receptor type 4 (Homo sapiens) (UniProt P61073); assay: Antagonist activity at CXCR4 (unknown origin) at 10 uM relative to control
C-X-C chemokine receptor type 4 (Homo sapiens), sequence (P61073 whole entry): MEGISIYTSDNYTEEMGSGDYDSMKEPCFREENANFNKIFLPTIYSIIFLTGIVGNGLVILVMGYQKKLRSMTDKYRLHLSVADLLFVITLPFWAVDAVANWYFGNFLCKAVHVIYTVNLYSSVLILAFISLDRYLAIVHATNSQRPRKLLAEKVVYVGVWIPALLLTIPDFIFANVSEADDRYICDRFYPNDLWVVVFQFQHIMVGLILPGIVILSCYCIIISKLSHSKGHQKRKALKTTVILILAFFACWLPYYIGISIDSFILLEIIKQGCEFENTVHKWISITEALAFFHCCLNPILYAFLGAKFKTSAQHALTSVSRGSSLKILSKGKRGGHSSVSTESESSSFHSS

[19] = molecular target: C-X-C chemokine receptor type 5 (Homo sapiens) (UniProt P32302); assay: Agonist activity at CXCR5 (unknown origin) at 12.5 uM relative to control
[20] = Plasma concentration in Sprague-Dawley rat at 10 mg/kg, po measured at 2 hrs by LC-MS/MS analysis; type: ADME, organism-based; parameters: dose 10 mg/kg, route oral
[21] = Apparent volume of distribution at steady state in Sprague-Dawley rat at 10 mg/kg, iv by LC-MS/MS analysis; type: ADME, organism-based; parameters: dose 10 mg/kg, route intravenous; conditions: in vivo, read-out: Vdss(app)
[22] = molecular target: B2 bradykinin receptor (Homo sapiens) (UniProt P30411); assay: Antagonist activity at BDKR2 (unknown origin) at 10 uM relative to control
[23] = molecular target: Muscarinic acetylcholine receptor M5 (Homo sapiens) (UniProt P08912); assay: Antagonist activity at M5 receptor (unknown origin) at 10 uM relative to control
CYP2C9 = CYP2C9 (Homo sapiens, UniProt P11712); assay: Inhibition of recombinant human CYP2C9 assessed as remaining activity at 10 uM preincubated for 5 mins followed by substrate and NADP addition measured after 20 mins by fluorescence assay relative to control; type: ADME; conditions: read-out: Activity
[24] = molecular target: Alpha-1A adrenergic receptor (Homo sapiens) (UniProt P35348); assay: Antagonist activity at ADRA1A (unknown origin) at 10 uM relative to control
[25] = molecular target: 5-hydroxytryptamine receptor 2A (Homo sapiens) (UniProt P28223); assay: Antagonist activity at 5HT2A receptor (unknown origin) at 10 uM relative to control
[26] = molecular target: 5-hydroxytryptamine receptor 2C (Homo sapiens) (UniProt P28335); assay: Agonist activity at 5HT2C receptor (unknown origin) at 12.5 uM relative to control

Metabotropic glutamate receptor 2 (Homo sapiens), sequence (Q14416 19-872 limits assumed): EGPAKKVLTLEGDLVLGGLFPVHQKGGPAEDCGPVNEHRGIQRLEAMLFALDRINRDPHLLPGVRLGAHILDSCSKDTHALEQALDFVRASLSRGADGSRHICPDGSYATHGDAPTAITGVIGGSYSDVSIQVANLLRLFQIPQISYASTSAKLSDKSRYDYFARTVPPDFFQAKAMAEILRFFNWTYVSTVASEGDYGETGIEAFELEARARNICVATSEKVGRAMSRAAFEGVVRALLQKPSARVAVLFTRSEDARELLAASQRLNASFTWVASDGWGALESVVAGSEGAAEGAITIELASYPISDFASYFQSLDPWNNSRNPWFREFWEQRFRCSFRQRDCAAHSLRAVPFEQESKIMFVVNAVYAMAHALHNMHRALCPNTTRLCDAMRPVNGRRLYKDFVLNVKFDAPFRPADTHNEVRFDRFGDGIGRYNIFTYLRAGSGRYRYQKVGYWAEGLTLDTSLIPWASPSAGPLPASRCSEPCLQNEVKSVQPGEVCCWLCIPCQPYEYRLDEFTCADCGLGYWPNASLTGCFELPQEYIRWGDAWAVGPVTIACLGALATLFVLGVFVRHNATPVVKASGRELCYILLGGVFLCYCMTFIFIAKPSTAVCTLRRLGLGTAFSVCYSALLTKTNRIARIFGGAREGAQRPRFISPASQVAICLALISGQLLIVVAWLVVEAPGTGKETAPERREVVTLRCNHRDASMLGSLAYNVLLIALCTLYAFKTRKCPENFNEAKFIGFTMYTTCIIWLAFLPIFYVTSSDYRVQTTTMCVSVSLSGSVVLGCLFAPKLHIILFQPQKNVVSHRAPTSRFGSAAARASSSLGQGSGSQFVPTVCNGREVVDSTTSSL
Muscarinic acetylcholine receptor M1 (Homo sapiens), sequence (P11229 whole entry): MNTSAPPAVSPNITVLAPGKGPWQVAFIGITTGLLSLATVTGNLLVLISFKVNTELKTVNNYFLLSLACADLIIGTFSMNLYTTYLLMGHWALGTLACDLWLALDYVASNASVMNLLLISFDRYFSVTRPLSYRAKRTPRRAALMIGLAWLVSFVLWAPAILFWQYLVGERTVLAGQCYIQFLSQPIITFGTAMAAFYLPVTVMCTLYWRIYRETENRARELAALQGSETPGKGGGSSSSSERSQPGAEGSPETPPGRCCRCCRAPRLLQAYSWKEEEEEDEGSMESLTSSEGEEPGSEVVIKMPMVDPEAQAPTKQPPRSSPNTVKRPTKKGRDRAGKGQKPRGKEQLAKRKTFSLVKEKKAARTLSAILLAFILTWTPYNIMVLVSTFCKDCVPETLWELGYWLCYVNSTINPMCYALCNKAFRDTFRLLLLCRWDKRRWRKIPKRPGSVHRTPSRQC

- inhibition [1]: -0.6%
- inhibition [2]: 5.8%
- Activity [3]: 0.3%
- Activity [4]: -2.7%
- half-life [5]: 1.83 h
- activity at 20 min, 10 µM (CYP2D6): 33.7%
- half-life [6]: 1.48 h
- remaining at 0.5 h, 1 µM [7]: 77.6%
- AUC(0-inf) [8]: 4250 ng·h/mL
- activity at 20 min, 10 µM (CYP3A4): 20.5%
- dose excreted [9]: 0%
- Activity [10]: -0.5%
- Activity [11]: -4%
- concentration at 2 h [12]: 1240 ng/mL
- IC50 [13]: 1.42 µM
- Activity [14]: -0.6%
- inhibition [15]: 4.5%
- Activity [16]: -1.4%
- inhibition [17]: -2.8%
- inhibition [18]: 3.9%
- Activity [19]: -2.9%
- concentration at 2 h [20]: 1190 ng/mL
- Vd [21]: 1.66 L/kg
- inhibition [22]: 10.3%
- inhibition [23]: 7.7%
- activity at 20 min, 10 µM (CYP2C9): 6.77%
- inhibition [24]: 9.2%
- inhibition [25]: 36.2%
- Activity [26]: -0.3%
SMILES: Cc1cc(C(=O)N2CCc3c(sc(NCc4ccccc4)c3C#N)C2)[nH]n1
- Activity (Rattus norvegicus): 90%

From ChEMBL document CHEMBL3421577, “Discovery and biological evaluation of tetrahydrothieno[2,3-c]pyridine derivatives as selective metabotropic glutamate receptor 1 antagonists for the potential treatment of neuropathic pain” (Eur J Med Chem, 2015)
